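Method: 48-hour compound exposure of cells in 96-well plates, five concentrations, linear interpolation of endpoints. At the GI50, growth is halved.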 Active and inactive are the calls of the source. Cut-off read from the data, not from the text of the source: active = GI50 up to about 1.1 µM and inactive = higher. Where a SMILES comes first, the peptide text is derived from it. The star is where a group is joined. Cbz = O=C(OCc1ccccc1)*; Bn = c1ccc(C*)cc1

The values that follow come from ChEMBL document CHEMBL1201862, “PubChem BioAssay data set” (2004).

Among the test systems are UO-31; SK-OV-3; NCI-H23; TK-10; MDA-N; SF-539; A549; SR; EKVX; HOP-92; SNB-19; NCI-H522; MDA-MB-435; K562; PC-3; HCT-15; DU-145; Hs-578T; OVCAR-5.
What all share (experiment): NCI anticancer screen, dose series, 48 h

Regarding `COC(=O)C(Cc1ccc(O)cc1)NC(=O)C(COCc1ccccc1)NC(=O)OCc1ccccc1` (stereo not given) (Cbz-Ser(Bn)-Tyr-OMe; configuration not given here), the GI50 in the test with UO-31 is 21.9 µM (inactive); in the test with SK-OV-3, 17.4 µM (inactive); with NCI-H23, 20.1 µM (inactive); in the test on TK-10, 20 µM (inactive); with MDA-N, 17.6 µM (inactive); in the test with SF-539, 18.8 µM (inactive). The GI50 in the test with A549 is 19.4 µM (inactive); with SR, > 100 µM (inactive); in the test on EKVX, 22.5 µM (inactive); in the test on HOP-92, 25.5 µM (inactive); with SNB-19 it was 16.9 µM (inactive); in the test on NCI-H522 it was 22.5 µM (inactive). Moreover, the GI50 in the test on MDA-MB-435 was 19.1 µM (inactive); in the test on K562, > 100 µM (inactive); with PC-3, 19.1 µM (inactive); in the test on HCT-15 it was 18.8 µM; with DU-145, 17.3 µM (inactive); in the test on Hs-578T, 24.6 µM (inactive). The GI50 with OVCAR-5 was 19.8 µM (inactive).

As for `COc1ccc(N2C(=O)c3c4c(c5c([nH]c6ncccc65)c3C2=O)CCC(C(C)(C)C)C4)cc1` (stereo not given), the GI50 is > 100 µM (inactive) with UO-31; 40.6 µM (inactive) in the test on SK-OV-3; 67 µM (inactive) with NCI-H23; 66.4 µM (inactive) with TK-10; > 100 µM (inactive) in the test on MDA-N; 41.9 µM (inactive) in the test with SF-539. Also, the GI50 in the test with A549 was > 100 µM (inactive); in the test with SR, > 100 µM (inactive); with EKVX it was > 100 µM (inactive); with SNB-19, 65.3 µM (inactive); in the test with NCI-H522 it was 67.3 µM (inactive); in the test on MDA-MB-435, > 100 µM (inactive). Besides, the GI50 in the test with K562 was > 10 µM (inactive); in the test on PC-3 it was > 100 µM (inactive); with HCT-15, above 100 µM; with DU-145, > 100 µM (inactive); with Hs-578T, 28.8 µM (inactive).

For `COc1ccc2cc(/C=N\NC(=O)Nc3cccc4ccccc34)ccc2c1`, the GI50 in the test with UO-31 was 87.3 µM (inactive); in the test on NCI-H23, 24.3 µM (inactive); with TK-10, 22 µM (inactive); in the test with MDA-N, 42 µM (inactive); in the test with SF-539 it was 30.5 µM (inactive); with A549 it was > 100 µM (inactive). Further, the GI50 in the test on SR was 16.1 µM (inactive); with EKVX it was 30.6 µM (inactive); in the test on SNB-19 it was 22 µM (inactive); with NCI-H522 it was 80 µM (inactive); in the test on MDA-MB-435 it was 50.6 µM (inactive); with K562 it was 14.6 µM (inactive). The GI50 in the test on PC-3 is 33.7 µM (inactive); with HCT-15 it was 67.5 µM; in the test with DU-145, 58.2 µM (inactive); with Hs-578T, 30.5 µM (inactive); in the test on OVCAR-5, 69.5 µM (inactive).

`COc1ccc2c(c1)CCC(CN1CCN(CCOC(c3ccccc3)c3ccccc3)CC1)C2O` (stereo not given): the GI50 in the test with UO-31 is 15.4 µM (inactive); in the test with SK-OV-3 it was 17.9 µM (inactive); with NCI-H23, 15.1 µM (inactive); in the test with TK-10, 14.1 µM (inactive); with MDA-N, 14.3 µM (inactive); in the test with SF-539, 11.3 µM (inactive). Besides, the GI50 in the test on A549 is 18.2 µM (inactive); in the test with SR it was 16.7 µM (inactive); in the test on EKVX, 11.1 µM (inactive); in the test with HOP-92, 14.4 µM (inactive); with SNB-19, 18.3 µM (inactive); with NCI-H522 it was 16.6 µM (inactive). The GI50 in the test on MDA-MB-435 is 16.6 µM (inactive); in the test on K562, 6.58 µM (inactive); in the test on PC-3, 13.5 µM (inactive); in the test on HCT-15, 10.8 µM; in the test on DU-145, 20.1 µM (inactive); in the test with Hs-578T it was 19.3 µM (inactive). Also, the GI50 with OVCAR-5 is 16.6 µM (inactive).

Take `COc1cc(C2c3cc(OC)c(OC)c(O)c3C(=O)C3CCC(=O)N32)cc(OC)c1OC` (stereo not given): the GI50 in the test on SK-OV-3 is 63 µM (inactive); in the test with TK-10 it was > 100 µM (inactive); in the test on MDA-N, 18.2 µM (inactive); in the test with SF-539 it was > 100 µM (inactive); in the test on A549 it was > 100 µM (inactive); with SR it was 89.7 µM (inactive). For the same compound, the GI50 is > 100 µM (inactive) in the test with EKVX; 35.3 µM (inactive) with HOP-92; > 100 µM (inactive) in the test on SNB-19; 26 µM (inactive) in the test with NCI-H522; 16.2 µM (inactive) with MDA-MB-435; 29.3 µM (inactive) in the test with K562. In addition, the GI50 with PC-3 is > 100 µM (inactive); with HCT-15, above 100 µM; with DU-145, > 100 µM (inactive); in the test on Hs-578T it was 56.4 µM (inactive); with OVCAR-5, > 100 µM (inactive).

With `Cc1ccc(S(=O)(=O)NCCSCCNS(=O)(=O)c2ccc(C)cc2)cc1`, the GI50 in the test on UO-31, in the test with SK-OV-3, in the test with NCI-H23, with TK-10, in the test with MDA-N and with A549 was > 100 µM (inactive) each time. Also, the GI50 in the test on SR, in the test with HOP-92, in the test with SNB-19, in the test on NCI-H522, in the test on MDA-MB-435 and with K562 was > 100 µM (inactive) throughout. In addition, the GI50 in the test on PC-3 was > 100 µM (inactive); in the test with HCT-15, above 100 µM; in the test with DU-145 it was > 100 µM (inactive); in the test on Hs-578T it was > 100 µM (inactive).

Take `Nc1c2c(=O)[nH]c(=O)c2c(N)c2c(=O)c3ccccc3c(=O)c12`: the GI50 was 3.81 µM (inactive) in the test with UO-31; 7.23 µM (inactive) with SK-OV-3; 0.76 µM (active) in the test with NCI-H23; 9.68 µM (inactive) with TK-10; 0.212 µM (active) with MDA-N; 2.04 µM (inactive) in the test on SF-539. Moreover, the GI50 in the test on A549 is 0.897 µM (active); in the test on SR, 2.74 µM (inactive); with EKVX, 3.17 µM (inactive); in the test on HOP-92 it was 12.9 µM (inactive); in the test with SNB-19, 3.29 µM (inactive); with NCI-H522, 3.35 µM (inactive). Moreover, the GI50 was 0.478 µM (active) with MDA-MB-435; 3.02 µM (inactive) in the test on K562; 2.49 µM (inactive) in the test with PC-3; 1.36 µM with HCT-15; 1.56 µM (inactive) with DU-145; 2.62 µM (inactive) with Hs-578T. Further, the GI50 with OVCAR-5 was 1.82 µM (inactive).

Take `CC(C)OP(=O)(OC(C)C)c1ccc2c(c1)OCCOCCOCCOCCO2`: the GI50 in the test with UO-31, in the test with SK-OV-3, in the test on NCI-H23, with TK-10, with MDA-N and in the test with SF-539 was > 100 µM (inactive) throughout. Moreover, the GI50 in the test on A549, in the test with SR, with EKVX, in the test with SNB-19, in the test on NCI-H522 and in the test on MDA-MB-435 was > 100 µM (inactive) in each case. The GI50 was > 100 µM (inactive) in the test on K562; > 100 µM (inactive) in the test on PC-3; above 100 µM in the test with HCT-15; > 100 µM (inactive) in the test on DU-145; > 100 µM (inactive) in the test on Hs-578T.

On to `COc1cc(OC)c2nc(C)c3c(c2c1)OCC3`, for which the GI50 in the test on UO-31 is > 100 µM (inactive); in the test on NCI-H23 it was > 100 µM (inactive); in the test with TK-10 it was > 100 µM (inactive); in the test with MDA-N, > 100 µM (inactive); with SF-539, 86.7 µM (inactive); with A549 it was > 100 µM (inactive). Moreover, the GI50 is > 100 µM (inactive) in the test with SR; 75.2 µM (inactive) in the test with EKVX; 40.6 µM (inactive) in the test with HOP-92; 47.3 µM (inactive) in the test with SNB-19; 72.9 µM (inactive) in the test on NCI-H522; > 100 µM (inactive) in the test with MDA-MB-435. The GI50 is > 100 µM (inactive) with K562; > 100 µM (inactive) in the test on PC-3; above 100 µM in the test on HCT-15; > 100 µM (inactive) in the test with DU-145; 47.4 µM (inactive) with Hs-578T; > 100 µM (inactive) with OVCAR-5.

As for `O=P(O)(O)CN1CCN(CP(=O)(O)O)CCN(CP(=O)(O)O)CCN(CP(=O)(O)O)CC1`, the GI50 with UO-31 is > 100 µM (inactive); with NCI-H23, 55.6 µM (inactive); with TK-10 it was 55.5 µM (inactive); in the test with MDA-N, 79.4 µM (inactive); in the test with SF-539 it was 70.5 µM (inactive); with A549, 58.5 µM (inactive). For the same compound, the GI50 in the test with SR is 10.5 µM (inactive); in the test on EKVX it was > 100 µM (inactive); with HOP-92, 38.3 µM (inactive); in the test on SNB-19, > 100 µM (inactive); in the test on NCI-H522 it was 90.4 µM (inactive); in the test on MDA-MB-435, > 100 µM (inactive). In addition, the GI50 in the test on K562 was 31.8 µM (inactive); in the test on PC-3, 87.3 µM (inactive); in the test on HCT-15, 27.8 µM; in the test on DU-145 it was > 100 µM (inactive); in the test on Hs-578T it was > 100 µM (inactive); in the test on OVCAR-5, 73.8 µM (inactive).

As to `CN1CCc2c(sc3nc(S)nc(S)c23)C1`, the GI50 in the test with SK-OV-3, in the test on NCI-H23, with TK-10, in the test on MDA-N, in the test with SF-539 and with A549 was > 100 µM (inactive) in each case. In addition, the GI50 with SR, in the test on EKVX, in the test on HOP-92, in the test with SNB-19, with NCI-H522 and with MDA-MB-435 was > 100 µM (inactive) in each case. The GI50 is > 100 µM (inactive) with K562; > 100 µM (inactive) in the test on PC-3; above 100 µM in the test on HCT-15; > 100 µM (inactive) in the test on DU-145; > 100 µM (inactive) with Hs-578T; > 100 µM (inactive) in the test with OVCAR-5.
